Reference: article PMC3914206

Assays:
panel of 442 kinases [1] = molecular target: T1, panel of 442 kinases (Homo sapiens, UniProt Q9NRM7); format: binding; details: Compound Concentration 10 µM
T1 construct: purchased KINOMEscan
T1 sequence (Q9NRM7 1-1088): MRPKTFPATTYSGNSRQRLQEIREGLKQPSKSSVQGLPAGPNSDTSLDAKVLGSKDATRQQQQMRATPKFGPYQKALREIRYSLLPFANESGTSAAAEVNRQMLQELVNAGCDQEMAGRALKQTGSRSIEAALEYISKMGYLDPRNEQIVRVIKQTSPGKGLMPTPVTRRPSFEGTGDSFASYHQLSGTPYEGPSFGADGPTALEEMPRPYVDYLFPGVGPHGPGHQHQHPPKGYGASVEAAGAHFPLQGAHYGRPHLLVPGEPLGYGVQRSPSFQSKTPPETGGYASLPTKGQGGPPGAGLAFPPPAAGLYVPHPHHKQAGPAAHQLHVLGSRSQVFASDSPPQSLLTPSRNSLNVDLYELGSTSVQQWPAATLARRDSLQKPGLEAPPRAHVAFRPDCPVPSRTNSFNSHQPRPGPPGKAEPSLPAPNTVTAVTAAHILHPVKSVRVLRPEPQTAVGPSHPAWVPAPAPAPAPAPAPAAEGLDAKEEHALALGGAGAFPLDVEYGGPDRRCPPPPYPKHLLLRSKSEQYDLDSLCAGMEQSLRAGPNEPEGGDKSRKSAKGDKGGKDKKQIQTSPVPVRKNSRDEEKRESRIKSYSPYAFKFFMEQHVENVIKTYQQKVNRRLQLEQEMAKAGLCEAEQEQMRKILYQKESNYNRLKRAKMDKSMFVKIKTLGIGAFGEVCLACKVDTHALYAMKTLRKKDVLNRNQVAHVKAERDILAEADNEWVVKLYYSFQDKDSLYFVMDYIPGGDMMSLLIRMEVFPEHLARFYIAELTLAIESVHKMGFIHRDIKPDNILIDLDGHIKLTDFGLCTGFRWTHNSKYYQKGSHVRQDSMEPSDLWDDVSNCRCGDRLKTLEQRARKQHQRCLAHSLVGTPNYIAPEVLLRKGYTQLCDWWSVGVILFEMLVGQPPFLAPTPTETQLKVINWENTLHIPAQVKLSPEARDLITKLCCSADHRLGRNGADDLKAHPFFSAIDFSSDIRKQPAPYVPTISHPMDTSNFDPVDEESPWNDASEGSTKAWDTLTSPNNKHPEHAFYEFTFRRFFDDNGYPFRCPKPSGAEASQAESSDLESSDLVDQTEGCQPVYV
Source text: (§1) We assessed the selectivity of members of this scaffold using the KINOMEscan methodology across a near comprehensive panel of 442 kinases [[18,27]].

panel of 442 kinases [2] = molecular target: T2, panel of 442 kinases (Homo sapiens, UniProt Q13976); format: binding; details: Compound Concentration 10 µM
T2 construct: purchased KINOMEscan
T2 sequence (Q13976 1-671): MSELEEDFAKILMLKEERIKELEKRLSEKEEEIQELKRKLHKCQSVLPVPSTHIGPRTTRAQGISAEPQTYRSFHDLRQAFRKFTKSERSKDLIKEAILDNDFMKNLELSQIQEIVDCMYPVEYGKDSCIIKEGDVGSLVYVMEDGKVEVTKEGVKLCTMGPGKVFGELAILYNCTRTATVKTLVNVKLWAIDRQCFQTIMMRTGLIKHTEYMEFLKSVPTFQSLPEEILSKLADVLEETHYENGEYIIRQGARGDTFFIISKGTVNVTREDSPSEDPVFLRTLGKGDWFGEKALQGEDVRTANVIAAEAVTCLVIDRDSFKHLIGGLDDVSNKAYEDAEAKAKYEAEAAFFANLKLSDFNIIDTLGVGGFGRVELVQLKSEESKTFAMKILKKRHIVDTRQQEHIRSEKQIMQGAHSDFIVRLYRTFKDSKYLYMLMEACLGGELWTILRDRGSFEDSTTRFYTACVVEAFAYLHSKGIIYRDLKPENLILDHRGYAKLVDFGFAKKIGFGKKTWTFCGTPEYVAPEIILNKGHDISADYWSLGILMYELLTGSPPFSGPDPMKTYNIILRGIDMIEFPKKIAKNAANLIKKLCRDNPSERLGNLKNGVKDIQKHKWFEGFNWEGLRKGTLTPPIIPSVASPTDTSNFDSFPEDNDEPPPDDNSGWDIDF
Source text: as §1

Row | SMILES | KINOMEscan: LATS2 (panel of 442 kinases [1]) | KINOMEscan: PRKG1 (panel of 442 kinases [2])
1 | CCOc1cc(C(=O)N2CCC(N3CCN(C)CC3)CC2)ccc1Nc1ncc2c(n1)N(C1CCCC1)c1ccccc1C(=O)N2C [Compound 26] | 93 | 100
2 | COc1cc(C(=O)N2CCC(N3CCN(C)CC3)CC2)ccc1Nc1ncc2c(n1)N(C)c1ccccc1C(=O)N2C [15 (LRRK2-IN-1)] | 95 | 98
3 | COc1cc(C(=O)N2CCC(N3CCN(C)CC3)CC2)ccc1Nc1ncc2c(n1)N(C1CCCC1)c1ccccc1C(=O)N2C [Compound 25, 11-cyclopentyl-2-((2-methoxy-4-(4-(4-methylpiperazin-1-yl)piperidine-1-carbonyl)phenyl)amino)-5-methyl-5H-benzo[e]pyrimido[5,4-b][1,4]diazepin-6(11H)-one] | 92 | 100
